ChEMBL document CHEMBL6087454, “Identification of Novel Organo-Se BTSA-Based Derivatives as Potent, Reversible, and Selective PPARγ Covalent Modulators for Antidiabetic Drug Discovery” (J Med Chem, 2025)
Calls of active or inactive are those of the source.

Key:
[1] = biological target: T1, Peroxisome proliferator-activated receptor gamma (Homo sapiens, UniProt P37231); experiment: Binding affinity to recombinant GST-tagged human PPAR-gamma ligand binding domain (E235 to Y505 residues) extracted from Escherichia coli BL21 (DE3) cells assessed as inhibition constant in presence of fluormone pan-PPAR green tracer by TR-FRET assay
T1 sequence (P37231 whole entry): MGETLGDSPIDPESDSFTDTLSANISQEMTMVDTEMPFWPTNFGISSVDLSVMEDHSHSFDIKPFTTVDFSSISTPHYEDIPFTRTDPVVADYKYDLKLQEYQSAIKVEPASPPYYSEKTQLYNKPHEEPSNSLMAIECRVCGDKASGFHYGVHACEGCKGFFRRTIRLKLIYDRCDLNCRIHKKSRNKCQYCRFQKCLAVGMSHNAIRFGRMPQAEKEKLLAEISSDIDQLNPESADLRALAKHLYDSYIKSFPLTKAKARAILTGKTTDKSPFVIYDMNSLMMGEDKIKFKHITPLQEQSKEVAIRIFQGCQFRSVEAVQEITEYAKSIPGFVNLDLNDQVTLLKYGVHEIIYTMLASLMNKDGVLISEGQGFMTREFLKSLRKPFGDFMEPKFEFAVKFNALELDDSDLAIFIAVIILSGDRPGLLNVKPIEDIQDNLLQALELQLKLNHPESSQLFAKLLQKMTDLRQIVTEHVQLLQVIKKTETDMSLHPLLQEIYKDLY

[2] = tested on: Mus musculus; experiment: Antidiabetic activity in male db/db mouse model assessed as upregulation of Glut4 gene expression in white adipose tissue at 2.5 to 10 mg/kg/day, ip administered for 4 weeks by RT-qPCR analysis; assay type: functional, organism-based; details: dose 2.5-10 mg/kg/day
[3] = tested on: Mus musculus; experiment: Antidiabetic activity in male db/db mouse model assessed as upregulation of adiponectin gene expression in white adipose tissue at 2.5 to 10 mg/kg/day, ip administered for 4 weeks by RT-qPCR analysis; assay type: functional, organism-based; details: dose 2.5-10 mg/kg/day
[4] = tested on: Mus musculus; experiment: Antidiabetic activity in male db/db mouse model assessed as upregulation of Glut4 gene expression in liver at 2.5 to 10 mg/kg/day, ip administered for 4 weeks by RT-qPCR analysis; assay type: functional, organism-based; details: dose 2.5-10 mg/kg/day
[5] = tested on: 3T3-L1; experiment: Insulin sensitizing activity in mouse 3T3-L1 cells assessed as downregulation of PTP1B gene expression at 1 uM measured after 48 hrs by RT-qPCR analysis; assay type: functional, cell-based
[6] = tested on: Mus musculus; experiment: Effect on cdk5 protein expression in male db/db mouse liver at 2.5 to 10 mg/kg/day, ip administered for 4 weeks by Western blotting analysis; assay type: functional, organism-based; details: dose 2.5-10 mg/kg/day
[7] = Toxicity in male db/db mouse model assessed as effect on heart weight at 2.5 to 10 mg/kg/day, ip administered for 4 weeks; assay type: organism-based; details: in vivo, 672 h, dose 2.5-10 mg/kg/day
[8] = tested on: Mus musculus; experiment: Antidiabetic activity in male db/db mouse model assessed as downregulation of LPL gene expression in liver at 2.5 to 10 mg/kg/day, ip administered for 4 weeks by RT-qPCR analysis; assay type: functional, organism-based; details: dose 2.5-10 mg/kg/day
[9] = Toxicity in male db/db mouse model assessed as effect on kidney weight at 2.5 to 10 mg/kg/day, ip administered for 4 weeks; assay type: organism-based; details: in vivo, 672 h, dose 2.5-10 mg/kg/day
[10] = tested on: Mus musculus; experiment: In vivo inhibition of Erk/Cdk5-mediated PPAR-gamma phosphorylation at Ser273 residue in male db/db mouse model assessed as decrease in phosphorylated-ERK expression in liver at 2.5 to 10 mg/kg/day, ip administered for 4 weeks by Western blotting analysis; assay type: functional, organism-based; details: dose 2.5-10 mg/kg/day
[11] = tested on: Mus musculus; experiment: Antidiabetic activity in male db/db mouse model assessed as increase in ANGPTL4 protein abundance in white adipose tissue at 2.5 to 10 mg/kg/day, ip administered for 4 weeks by Western blotting analysis; assay type: functional, organism-based; details: dose 2.5-10 mg/kg/day
[12] = tested on: Mus musculus; experiment: Antidiabetic activity in male db/db mouse model assessed as reduction in random blood glucose level administered intraperitoneally for 4 weeks; assay type: functional, organism-based; details: dose 2.5-10 mg/kg/day, route ip
[13] = tested on: Mus musculus; experiment: Antidiabetic activity in male db/db mouse model assessed as downregulation of CD36 gene expression in liver at 2.5 to 10 mg/kg/day, ip administered for 4 weeks by RT-qPCR analysis; assay type: functional, organism-based; details: dose 2.5-10 mg/kg/day
[14] = tested on: Mus musculus; experiment: In vivo inhibition of Erk/Cdk5-mediated PPAR-gamma phosphorylation at Ser273 residue in male db/db mouse model assessed as decrease in phosphorylated-ERK expression in white adipose tissue at 2.5 to 10 mg/kg/day, ip administered for 4 weeks by Western blotting analysis; assay type: functional, organism-based; details: dose 2.5-10 mg/kg/day
[15] = tested on: 3T3-L1; experiment: Inhibition of adipocyte differentiation in mouse 3T3-L1 cells assessed as reduction in lipid accumulation at 1 uM measured after 48 hrs by Oil red O staining based inverted microscopic analysis; assay type: functional, cell-based
[16] = tested on: Mus musculus; experiment: Antidiabetic activity in male db/db mouse model assessed as downregulation of PPARgamma gene expression in liver at 2.5 to 10 mg/kg/day, ip administered for 4 weeks by RT-qPCR analysis; assay type: functional, organism-based; details: dose 2.5-10 mg/kg/day
[17] = Toxicity in male db/db mouse model assessed as decrease in liver weight at 10 mg/kg, ip administered for 4 weeks; assay type: organism-based; details: in vivo, 672 h
[18] = organism: Homo sapiens; experiment: Binding affinity to PPAR-beta (unknown origin) at 0.5 uM in presence of fluormone pan-PPAR green tracer by TR-FRET assay
[19] = tested on: 3T3-L1; experiment: Insulin sensitizing activity in mouse 3T3-L1 cells assessed as upregulation of adiponectin gene expression at 1 uM measured after 48 hrs by RT-qPCR analysis; assay type: functional, cell-based
[20] = Toxicity in male db/db mouse model assessed as increase in brown adipocytes size at 2.5 to 10 mg/kg/day, ip administered for 4 weeks by H and E staining based analysis; assay type: organism-based; details: in vivo, 672 h, dose 2.5-10 mg/kg/day
[21] = tested on: Mus musculus; experiment: Antidiabetic activity in male db/db mouse model assessed as decrease in serum insulin level at 2.5 to 10 mg/kg/day, ip preadministered for 4 weeks followed by glucose administration after 4 to 6 hrs of fasting and measured after 120 mins by intraperitoneal insulin tolerance test; assay type: functional, organism-based; details: dose 2.5-10 mg/kg/day
[22] = tested on: Mus musculus; experiment: Antidiabetic activity in male db/db mouse model assessed as improvement in insulin tolerance at 2.5 to 10 mg/kg/day, ip preadministered for 4 weeks followed by glucose administration after 4 to 6 hrs of fasting and measured after 120 mins by intraperitoneal insulin tolerance test; assay type: functional, organism-based; details: dose 2.5-10 mg/kg/day
[23] = tested on: Mus musculus; experiment: Antidiabetic activity in male db/db mouse model assessed as decrease in PDK4 protein abundance in liver at 2.5 to 10 mg/kg/day, ip administered for 4 weeks by Western blotting analysis; assay type: functional, organism-based; details: dose 2.5-10 mg/kg/day
[24] = biological target: T2, Peroxisome proliferator-activated receptor gamma (Homo sapiens) (UniProt P37231); experiment: Reversible covalent binding affinity to recombinant GST-tagged human PPAR-gamma ligand binding domain (E235 to Y505 residues) extracted from Escherichia coli BL21 (DE3) cells at 500 nM measured upto 240 mins by TR-FRET assay; details: filed as partial agonist
T2 sequence (whole entry): T1 sequence (P37231 whole entry)

[25] = biological target: T2, Peroxisome proliferator-activated receptor gamma (Homo sapiens); experiment: Reversible covalent binding affinity to full-length human PPAR-gamma transfected in […] cells at 5 to 60 nM preincubated for 6 hrs followed by rosiglitazone addition and measured after 24 hrs by Firefly and Renilla-Glo luciferase reporter assay; assay type: cell-based; details: filed as partial agonist, dose 5-60 nM, time 30.0 hrs
[26] = tested on: 3T3-L1; experiment: Insulin sensitizing activity in mouse 3T3-L1 cells assessed as upregulation of Glut4 gene expression at 1 uM measured after 48 hrs by RT-qPCR analysis; assay type: functional, cell-based

Cc1ccc(S(=O)(=O)Oc2ccc(S3(=O)=N[Se]c4cc(OS(=O)(=O)c5ccc(C)cc5)ccc43)cc2)cc1 (stereo unspecified)
Non-toxic: Activity [7] | Activity [9] | Activity [20]
124 nM: Ki [1]
inactive: Activity [6] | Activity [18]
Toxic: Activity [17]
active: Activity [2] | Activity [3] | Activity [4] | Activity [5] | Activity [8] | inhibition [10] | Activity [11] | Activity [12] Dose-dependent-effect | Activity [13] | inhibition [14] | inhibition [15] | Activity [16] | Activity [19] | Activity [21] | Activity [22] | Activity [23] | Activity [24] | Activity [25] | Activity [26]
